Experiment: xn = mol fraction of the nth substance listed
Conditions: for mass density: Liquid; for surface tension liquid-gas: Pendant drop shape

C1CCCCC1 [cyclohexane] + CCCCCCC
Conditions | mass density [kg/m3] | surface tension liquid-gas [mN/m]
283.15 K, x1 = 0.1022 | 699.2 | –
283.15 K, x1 = 0.2022 | 706.5 | –
283.15 K, x1 = 0.3078 | 714.6 | –
283.15 K, x1 = 0.401 | 722.3 | –
283.15 K, x1 = 0.4984 | 730.8 | –
283.15 K, x1 = 0.7003 | 750.8 | –
283.15 K, x1 = 0.8054 | 761.5 | –
283.15 K, x1 = 0.898 | 774.2 | –
283.15 K, x1 = 1 | 787.9 | –
287.81 K, x1 = 0.1022 | – | 20.91
287.81 K, x1 = 0.2022 | – | 21.31
287.81 K, x1 = 0.3078 | – | 21.65
287.81 K, x1 = 0.401 | – | 21.88
287.81 K, x1 = 0.4984 | – | 22.27
287.81 K, x1 = 0.6002 | – | 22.62
287.81 K, x1 = 0.7003 | – | 23.08
287.81 K, x1 = 0.8054 | – | 23.84
287.81 K, x1 = 0.898 | – | 24.39
287.81 K, x1 = 1 | – | 25.34
288.15 K, x1 = 0.1022 | 695 | –
288.15 K, x1 = 0.2022 | 702.2 | –
288.15 K, x1 = 0.3078 | 710.4 | –
288.15 K, x1 = 0.401 | 717.9 | –
288.15 K, x1 = 0.4984 | 726.5 | –
288.15 K, x1 = 0.7003 | 746.4 | –
288.15 K, x1 = 0.8054 | 758 | –
288.15 K, x1 = 0.898 | 769.7 | –
288.15 K, x1 = 1 | 783.2 | –
293.15 K, x1 = 0.1022 | 690.8 | –
293.15 K, x1 = 0.2022 | 698 | –
293.15 K, x1 = 0.3078 | 706.1 | –
293.15 K, x1 = 0.401 | 713.6 | –
293.15 K, x1 = 0.4984 | 722.2 | –
293.15 K, x1 = 0.7003 | 742 | –
293.15 K, x1 = 0.8054 | 753.5 | –
293.15 K, x1 = 0.898 | 765.1 | –
293.15 K, x1 = 1 | 778.6 | –
297.82 K, x1 = 0.1022 | – | 19.95
297.82 K, x1 = 0.2022 | – | 20.25
297.82 K, x1 = 0.3078 | – | 20.52
297.82 K, x1 = 0.401 | – | 20.9
297.82 K, x1 = 0.4984 | – | 21.21
297.82 K, x1 = 0.6002 | – | 21.57
297.82 K, x1 = 0.7003 | – | 22.14
297.82 K, x1 = 0.8054 | – | 22.72
297.82 K, x1 = 0.898 | – | 23.32
297.82 K, x1 = 1 | – | 24.2
298.15 K, x1 = 0.1022 | 686.5 | –
298.15 K, x1 = 0.2022 | 693.6 | –
298.15 K, x1 = 0.3078 | 701.7 | –
298.15 K, x1 = 0.401 | 709.2 | –
298.15 K, x1 = 0.4984 | 717.8 | –
298.15 K, x1 = 0.6002 | 725.6 | –
298.15 K, x1 = 0.7003 | 737.5 | –
298.15 K, x1 = 0.8054 | 749 | –
298.15 K, x1 = 0.898 | 760.5 | –
298.15 K, x1 = 1 | 773.9 | –
303.15 K, x1 = 0.1022 | 682.2 | –
303.15 K, x1 = 0.2022 | 689.3 | –
303.15 K, x1 = 0.3078 | 697.4 | –
303.15 K, x1 = 0.401 | 704.8 | –
303.15 K, x1 = 0.4984 | 713.3 | –
303.15 K, x1 = 0.6002 | 722 | –
303.15 K, x1 = 0.7003 | 733 | –
303.15 K, x1 = 0.8054 | 744.4 | –
303.15 K, x1 = 0.898 | 755.8 | –
303.15 K, x1 = 1 | 769.2 | –
307.86 K, x1 = 0.1022 | – | 18.91
307.86 K, x1 = 0.2022 | – | 19.25
307.86 K, x1 = 0.3078 | – | 19.58
307.86 K, x1 = 0.401 | – | 19.87
307.86 K, x1 = 0.4984 | – | 20.19
307.86 K, x1 = 0.6002 | – | 20.53
307.86 K, x1 = 0.7003 | – | 21.06
307.86 K, x1 = 0.8054 | – | 21.64
307.86 K, x1 = 0.898 | – | 22.18
307.86 K, x1 = 1 | – | 23.02
308.15 K, x1 = 0.1022 | 677.8 | –
308.15 K, x1 = 0.2022 | 685 | –
308.15 K, x1 = 0.3078 | 693 | –
308.15 K, x1 = 0.401 | 700.4 | –
308.15 K, x1 = 0.4984 | 708.9 | –
308.15 K, x1 = 0.6002 | 718.1 | –
308.15 K, x1 = 0.7003 | 728.4 | –
308.15 K, x1 = 0.8054 | 739.8 | –
308.15 K, x1 = 0.898 | 751.2 | –
308.15 K, x1 = 1 | 764.4 | –
313.15 K, x1 = 0.1022 | 673.5 | –
313.15 K, x1 = 0.2022 | 680.6 | –
313.15 K, x1 = 0.3078 | 688.6 | –
313.15 K, x1 = 0.401 | 696 | –
313.15 K, x1 = 0.4984 | 704.4 | –
313.15 K, x1 = 0.6002 | 713.8 | –
313.15 K, x1 = 0.7003 | 723.9 | –
313.15 K, x1 = 0.8054 | 735.2 | –
313.15 K, x1 = 0.898 | 746.5 | –
313.15 K, x1 = 1 | 759.6 | –
317.86 K, x1 = 0.1022 | – | 17.91
317.86 K, x1 = 0.2022 | – | 18.36
317.86 K, x1 = 0.3078 | – | 18.53
317.86 K, x1 = 0.401 | – | 18.82
317.86 K, x1 = 0.4984 | – | 19.16
317.86 K, x1 = 0.6002 | – | 19.55
317.86 K, x1 = 0.7003 | – | 20.01
317.86 K, x1 = 0.8054 | – | 20.56
317.86 K, x1 = 0.898 | – | 21.07
317.86 K, x1 = 1 | – | 21.84
318.15 K, x1 = 0.1022 | 669 | –
318.15 K, x1 = 0.2022 | 676.1 | –
318.15 K, x1 = 0.3078 | 684.1 | –
318.15 K, x1 = 0.401 | 691.5 | –
318.15 K, x1 = 0.4984 | 699.9 | –
318.15 K, x1 = 0.6002 | 709.3 | –
318.15 K, x1 = 0.7003 | 719.3 | –
318.15 K, x1 = 0.8054 | 730.6 | –
318.15 K, x1 = 0.898 | 741.8 | –
318.15 K, x1 = 1 | 754.8 | –
323.15 K, x1 = 0.1022 | 664.6 | –
323.15 K, x1 = 0.2022 | 671.7 | –
323.15 K, x1 = 0.3078 | 679.6 | –
323.15 K, x1 = 0.401 | 686.9 | –
323.15 K, x1 = 0.4984 | 695.4 | –
323.15 K, x1 = 0.6002 | 704.7 | –
323.15 K, x1 = 0.7003 | 714.7 | –
323.15 K, x1 = 0.8054 | 725.9 | –
323.15 K, x1 = 0.898 | 737.1 | –
323.15 K, x1 = 1 | 750 | –
327.88 K, x1 = 0.1022 | – | 16.83
327.88 K, x1 = 0.2022 | – | 17.05
327.88 K, x1 = 0.3078 | – | 17.41
327.88 K, x1 = 0.401 | – | 17.52
327.88 K, x1 = 0.4984 | – | 17.99
327.88 K, x1 = 0.6002 | – | 18.44
327.88 K, x1 = 0.7003 | – | 18.95
327.88 K, x1 = 0.8054 | – | 19.48
327.88 K, x1 = 0.898 | – | 19.98
327.88 K, x1 = 1 | – | 20.71
328.15 K, x1 = 0.1022 | 660.1 | –
328.15 K, x1 = 0.2022 | 667.2 | –
328.15 K, x1 = 0.3078 | 675.1 | –
328.15 K, x1 = 0.401 | 682.4 | –
328.15 K, x1 = 0.4984 | 691 | –
328.15 K, x1 = 0.6002 | 700.1 | –
328.15 K, x1 = 0.7003 | 710 | –
328.15 K, x1 = 0.8054 | 721.2 | –
328.15 K, x1 = 0.898 | 732.3 | –
328.15 K, x1 = 1 | 745.2 | –
333.15 K, x1 = 0.1022 | 655.5 | –
333.15 K, x1 = 0.3078 | 670.5 | –
333.15 K, x1 = 0.401 | 677.8 | –
333.15 K, x1 = 0.4984 | 686.2 | –
333.15 K, x1 = 0.6002 | 695.5 | –
333.15 K, x1 = 0.7003 | 705.3 | –
333.15 K, x1 = 0.8054 | 716.5 | –
333.15 K, x1 = 0.898 | 727.5 | –
333.15 K, x1 = 1 | 740.3 | –
